Laboratory results as given in PubChem BioAssay (NCI).
Where “and” joins values, the source holds several entries; their conditions need not be identical. Identical values can stand only once.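 Each compound was tested at five concentrations against cells in 96-well plates for 48 hours. GI50 is the concentration that inhibits growth by half. TGI: total growth inhibition.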

Legend:
Experiment in all cases: DTP human tumour cell line panel, 48 h
[1] = tested on: BT-549 breast
[2] = tested on: COLO 205 colon
[3] = tested on: EKVX NSCLC
[4] = tested on: HT29 colon
[5] = tested on: MALME-3M melanoma
[6] = tested on: MCF7 breast
[7] = tested on: SF-268 CNS
[8] = tested on: SNB-75 CNS
[9] = tested on: UO-31 renal
[10] = tested on: MDA-MB-435

| Structure (SMILES) | TGI [1] [µM] | TGI [2] [µM] | TGI [3] [µM] | TGI [4] [µM] | TGI [5] [µM] | TGI [6] [µM] | TGI [7] [µM] | TGI [8] | TGI [9] [µM] | GI50 [1] [µM] | GI50 [3] [µM] | GI50 [4] [µM] | GI50 [5] [µM] | GI50 [6] [µM] | GI50 [10] [µM] | TGI [10] [µM] | GI50 [7] [µM] | GI50 [8] [µM] | GI50 [9] [µM] | GI50 [2] [µM] |
| --- | --- | --- | --- | --- | --- | --- | --- | --- | --- | --- | --- | --- | --- | --- | --- | --- | --- | --- | --- | --- |
| NCOC(=O)Cc1ccc(Br)cc1 | > 100 | > 100 | > 100 | > 100 | > 100 | > 100 | > 100 | > 100 µM | > 100 |  |  |  |  |  |  |  |  |  |  |  |
| COc1ccc(C2=NN(C(=O)c3cc(OC)c(OC)c(OC)c3)C(c3ccc(N(C)C)cc3)C2)cc1 (centres undefined) | > 100 |  | > 100 |  | > 100 |  | > 100 | 8.72 µM | > 100 | 1.58 | 1.43 | 0.395 | 41.6 | 0.318 | 0.205 | 0.478 | 0.736 | 0.346 | 0.558 |  |
| Cc1ccc(NC(=O)c2sc3nc4c(cc3c2N)C(=O)CCC4)cc1C |  | 0.936 |  | 11.2 | > 100 | > 100 | > 100 | > 100 µM | > 100 |  |  | 0.399 |  | 0.352 |  |  | 4.47 | 0.313 | 1.81 | 0.309 |
| COc1cc(-c2c(C#N)c(N)nc(N3CCOCC3)c2C#N)cc(OC)c1OC | > 100 | > 100 | > 100 | > 100 |  | > 100 | > 100 | 54.4 µM | > 100 | > 100 | > 100 | > 100 |  | > 100 | > 100 | > 100 | > 100 | 1.64 | 96.1 | 5.39 |
| Cc1ccc2c(c1)S(=O)(=O)c1ccc3ccccc3c1N2 | > 100 | > 100 | > 100 | > 100 |  | > 100 | > 100 |  | > 100 |  |  |  |  |  |  | > 100 |  |  |  |  |
| CC(C)(C)CC(N)=O | > 100 | > 100 | > 100 | > 100 |  | > 100 | > 100 | > 100 µM | > 100 |  |  |  |  |  |  | > 100 |  |  |  |  |
| COC1=CC(c2ccc[nH]2)=N/C1=C\c1[nH]c(C)c(C(=O)CCCCC(=O)Oc2ccc3c(c2)CCC2C3CC[C@]3(C)[C@@H](O)CC[C@@H]23)c1C (some centres undefined) | > 100 | > 100 |  |  |  | > 100 | > 100 | > 100 µM | > 100 | 4.39 |  |  |  | 0.863 | 5.47 | > 100 | > 100 | 12.7 | 5.08 | > 100 |
| COc1ccc(Nc2cc(C)nc(NCCCNc3ccnc4cc(Cl)ccc34)n2)cc1 | 4.67 | 3.22 |  | 2.67 | 3.94 | 2.74 | 3.61 | 2.54 µM | 2.95 | 1.86 |  | 1.1 | 2.07 | 1.16 | 1.35 | 2.64 | 1.8 | 1.28 | 1.52 | 1.58 |
| OCc1ccc(N2CCc3ccccc3C2)cc1Cl | 40.8 | 0.0619 |  | > 55.4 | 56.6 | 55.3 | > 100 | 57.7 µM | 55.8 | 17.7 |  | < 0.02 | 20.3 | < 0.01 | 23.2 | > 75.8 | 32.5 | 15.9 | 8.28 | 0.0136 |
| CC(=O)c1cc(C(=O)c2ccc3c(c2)Sc2ccccc2N3)c2cc(C)ccn12 | > 100 | 0.346 | > 100 | > 100 | > 100 | > 100 | > 100 | > 100 µM | > 100 | 0.251 | 0.0873 | 0.0627 | 0.0429 | 0.0345 |  |  | 0.0823 | 0.0416 | 0.0515 | 0.0598 |
| NC(N)=N/N=C/c1ccc(-c2ccc(-c3cc(Cl)cc(Cl)c3)s2)cc1 | 7.02 | 3.88 | 4.03 | 4.81 | 3.42 | 3.07 | 4.22 |  | 2.97 | 2.37 | 1.84 | 1.91 | 1.72 | 1.1 | 1.65 | 3.28 | 1.85 |  | 1.5 | 1.49 |
| COc1cc(/C=C2\C[C@H]3[C@@H]4CC=C5C[C@@H](O)CC[C@]5(C)[C@H]4CC[C@]3(C)[C@H]2O)ccc1OCCCn1ccnc1 |  | > 50 | > 50 | > 50 |  | 27.7 | 19.2 |  | > 50 |  | 6.06 | 2.68 |  | 2.63 | 3.52 | 12.6 | 3.82 |  | 2.12 | 8.74 |
| Cn1c(=O)c(Oc2ccc(F)cc2F)cc2cnc(NC3CCS(=O)(=O)CC3)nc21 | > 25 | > 25 |  | > 25 | > 25 | > 25 | > 25 | > 25 µM | > 25 | > 25 |  | > 25 | > 25 | > 25 | > 25 | > 25 | > 18.9 | > 14.2 | > 25 | > 25 |
| Clc1cc(Cl)cc(N2N=C(c3cccc(Nc4ccncc4)c3)CC2c2ccc3c(c2)OCO3)c1 (centres undefined) | 3.3 | 3.88 | 3.2 | 4.72 |  | 4.17 | 3.34 | 2.99 µM | 2.67 | 1.7 | 1.61 | 2.14 |  | 1.89 | 1.62 | 3.09 | 1.7 | 1.38 | 1.36 | 1.87 |
| Cn1cc(C2=C(c3cn(C)c4ccccc34)C(=O)NC2=O)c2ccccc21 | > 25 | > 25 |  | > 25 | > 25 | > 25 | > 25 | 1.64 µM | > 25 | 2.33 |  | 0.775 | 4.42 | 0.72 | 0.095 | > 6.61 | 3.1 | 0.306 | 2.49 | 1.1 |
| Cn1c(/C=C/[N+](=O)[O-])cc2ccccc21 | 3.77 | 3.69 | > 100 | 4.02 | 25.9 |  | 27.4 | 28.4 µM | 3.64 | 1.88 | 15.3 | 1.68 | 11.1 |  | 1.69 | 4.34 | 11.7 | 3.36 | 1.47 | 1.88 |
| N#C[Se]CCCNS(=O)(=O)C1CC2C=CC1C2 (centres undefined) | 0.388 | 5.83 | 1.84 | 5.31 | 1.87 | 5.55 | 0.916 |  | 1.43 | 0.192 | 0.491 | 0.386 | 0.416 | 0.588 | 0.361 | 1.31 | 0.301 |  | 0.338 | 2.3 |
| COc1cc([N+](=O)[O-])c(OC)cc1-c1nc2sc(Cl)cn2c1/C=N/NC1=NCCN1 | 5.95 | 3.7 | 5.64 |  |  | > 100 |  |  |  | 2.69 | 2.33 | 0.269 |  | 0.431 | 3.65 | > 100 |  |  | 0.966 | 1.33 |
| Cc1ccc(Cl)c(Nc2ccccc2C(=O)O)c1Cl | 60.1 | 43 |  | > 100 | 63.4 | > 100 | > 100 |  | 45.5 | 21.7 |  | 35.6 | 23.1 | 34.2 | 23.8 | 85.3 | 31.8 |  | 19.3 | 22.2 |
| O=C(Nc1ccccc1)c1cc(S(=O)(=O)Nc2nc3ccccc3o2)c(SCc2ccccc2)cc1Cl | 40.6 | > 100 | 31.3 | > 100 |  | 80.6 | 41.4 | 66.9 µM | 48.5 | 19 | 15.3 | 43 |  | 28.4 | 19 | 37.7 | 15.4 | 25.3 | 17.8 | 36.7 |
| COc1ccc(/C=C/C(=O)c2ccc(OC)c(OC)c2)cc1O | 17.4 | 25 |  | 20.5 | 31.7 | 16.2 | 29.1 |  | 19.2 | 5.5 |  | 5.91 | 15.8 | 4.58 | 5.22 | 23.5 | 8.74 |  | 5.83 | 12.5 |
| COc1ccc(C(=O)C(c2ccc(OCc3ccccc3)cc2)c2ccc(OCc3ccccc3)cc2)cc1 |  | > 100 | > 100 | > 100 | > 100 |  | > 100 | > 100 µM | > 100 |  |  |  |  |  |  |  |  |  |  |  |
| COc1ccc(C2C(C)C(=O)C(C)C(c3ccc(OC)cc3)N2N=O)cc1 (centres undefined) |  | > 750 | > 1000 | > 1000 | > 700 | > 1000 | > 1000 | 20.4 µM and 80 µM and 57.8 µM | > 1000 |  |  |  |  |  |  | 343 | 78.1 | 5.93 |  | > 750 |
